The CheMixHub viscosity set
“And” between values parts separate entries of the source, which are not always exact repeats. Identical values can stand only once.

Brc1ccc2[n-]cnc2c1.CCCCCCCCCCCCCC[P+](CCCCCC)(CCCCCC)CCCCCC
100 kPa
Settings	viscosity [mPa·s]
293.15 K	1910
298.15 K	1270
303.15 K	872
308.15 K	613
313.15 K	441
318.15 K	325
323.15 K	246

CC(C)=O
Settings	viscosity
293.15 K, 100 kPa	0.3276 mPa·s and 0.3276 mPa·s
293.15 K, 101.32 kPa	0.318 mPa·s
293.15 K, 101.33 kPa	0.337 mPa·s and 0.321 mPa·s
293.16 K, 101 kPa	0.326 mPa·s
293.2 K, 101 kPa	0.323 mPa·s
294.15 K, 101 kPa	0.362 mPa·s
296 K, 101.3 kPa	0.311 mPa·s
298.15 K, 100 kPa	0.3186 mPa·s and 0.3186 mPa·s
298.15 K, 101.3 kPa	0.316 mPa·s
298.15 K, 101.33 kPa	0.3013 mPa·s and 0.3049 mPa·s and 0.307 mPa·s
298.16 K, 101 kPa	0.316 mPa·s
302.4 K, 101 kPa	0.5915 mPa·s
302.95 K, 101 kPa	0.295 mPa·s
303.05 K, 101 kPa	0.335 mPa·s
303.15 K, 100 kPa	0.3091 mPa·s and 0.3091 mPa·s and 0.303 mPa·s
303.15 K, 101.33 kPa	0.295 mPa·s and 0.298 mPa·s and 0.339 mPa·s
303.16 K, 101 kPa	0.295 mPa·s
303.95 K, 101 kPa	0.3366 mPa·s
307.35 K, 101.33 kPa	0.29 mPa·s
308.15 K, 100 kPa	0.2992 mPa·s and 0.2992 mPa·s
311.35 K, 101 kPa	0.3166 mPa·s
313.15 K, 100 kPa	0.289 mPa·s and 0.289 mPa·s and 0.276 mPa·s
313.15 K, 101.33 kPa	0.3089 mPa·s
313.25 K, 101 kPa	0.27 mPa·s
318.15 K, 100 kPa	0.2784 mPa·s and 0.2784 mPa·s
318.15 K, 101 kPa	0.279 mPa·s and 0.2649 mPa·s
318.15 K, 101.32 kPa	0.2496 mPa·s
322.95 K, 101 kPa	0.248 mPa·s
323.15 K, 100 kPa	0.2673 mPa·s and 0.2673 mPa·s and 0.255 mPa·s
323.15 K, 101.33 kPa	0.2871 mPa·s

CC(C)C[P+](C)(CC(C)C)CC(C)C.Cc1ccc(S(=O)(=O)[O-])cc1
Settings	viscosity [mPa·s]
293.15 K, 101 kPa	1320

CCCCn1cc[n+](C)c1.O=S(=O)([O-])C(F)(F)F
viscosity
Settings	293.15 K	298.15 K	303.15 K	308.15 K	313.15 K	318.15 K	323.15 K
100 kPa	90.81 mPa·s and 102 mPa·s	76.01 mPa·s and 87.96 mPa·s and 80.1 mPa·s	63.6 mPa·s and 64.02 mPa·s	56.43 mPa·s and 52.18 mPa·s	42.11 mPa·s and 42.76 mPa·s	38.31 mPa·s and 35.66 mPa·s	30.02 mPa·s and 30.01 mPa·s
101 kPa	–	59.8 mPa·s	–	–	–	–	29.55 mPa·s

Cc1ccccc1
Settings	viscosity
293.15 K, 100 kPa	0.598 mPa·s
293.15 K, 101.2 kPa	0.6003 mPa·s
293.15 K, 101.32 kPa	0.5859 mPa·s
293.15 K, 101.33 kPa	0.592 mPa·s
295.85 K, 101.33 kPa	0.5984 mPa·s
298 K, 101.33 kPa	0.546 mPa·s
298.15 K, 100 kPa	0.551 mPa·s
298.15 K, 101.33 kPa	0.506 mPa·s
302.4 K, 101 kPa	0.9538 mPa·s
303 K, 100 kPa	0.5268 mPa·s
303 K, 101.33 kPa	0.514 mPa·s and 0.515 mPa·s
303.15 K, 100 kPa	0.539 mPa·s
303.15 K, 101.2 kPa	0.5357 mPa·s
303.15 K, 101.3 kPa	0.5272 mPa·s
305.45 K, 101.33 kPa	0.5375 mPa·s
308 K, 100 kPa	0.4984 mPa·s
308.15 K, 100 kPa	0.498 mPa·s
308.15 K, 101.2 kPa	0.5069 mPa·s
308.15 K, 101.3 kPa	0.492 mPa·s and 0.4981 mPa·s and 0.503 mPa·s
308.5 K, 101 kPa	0.512 mPa·s
312.65 K, 101.33 kPa	0.4982 mPa·s
313 K, 100 kPa	0.4811 mPa·s
313 K, 101.33 kPa	0.463 mPa·s and 0.461 mPa·s
313.15 K, 100 kPa	0.495 mPa·s
313.15 K, 101 kPa	0.4601 mPa·s and 0.4804 mPa·s and 0.559 mPa·s
313.15 K, 101.2 kPa	0.4807 mPa·s
313.15 K, 101.33 kPa	0.478 mPa·s and 0.478 mPa·s and 0.481 mPa·s
318.15 K, 100 kPa	0.44 mPa·s
318.15 K, 101.2 kPa	0.4571 mPa·s
318.15 K, 101.32 kPa	0.4428 mPa·s
318.15 K, 101.33 kPa	0.458 mPa·s
322.65 K, 101.33 kPa	0.45 mPa·s
323 K, 101.33 kPa	0.413 mPa·s and 0.418 mPa·s
323.15 K, 101 kPa	0.4435 mPa·s and 0.418 mPa·s and 0.4321 mPa·s
